Tested on: guinea pigs exposed to smoke of cigarette
Assay: Cigarette smoke exposure guinea pig COPD model, respiratory functions by Double-chamber Plethymograph method
Format: in vivo, Hartley strain guinea pigs
Details: 10 mg/kg orally once a day; for Changes in Peak expiration flow / Changes in Specific airway resistance value: change vs value before exposure to cigarette smoke
Description: In accordance with the method of Jun-ichi Fuchikami, et al. (Japanese Journal of Pharmacology, 2000, (82), p. 247), the following pharmacological test was conducted.
Hartley strain guinea pigs (5 weeks age, body weight: 300 to 379.5 g) were exposed to smoke of cigarette (trade name: Hi-Light, manufactured by Japan Tobacco Inc.) for 1 hour/day, 5 days a week, during 4 weeks, by using a flow-past type nose-only inhalation chamber, manufactured by Muenster Co. Control group as a normal group was exposed to the atmospheric air instead of cigarette smoke.
Compound A was suspended in 0.5% tragacanth gum aqueous solution, and this suspension was orally administered compulsorily to the guinea pigs (compound A administered group), in the amount of 10 mg/kg once a day, 1 hour before the exposure to cigarette smoke in the day of exposure, and in the morning in the day of non-exposure, respectively.
To the guinea pigs in the vehicle administered group, a 0.5% tragacanth gum aqueous solution without containing Compound A was orally administered instead of the suspension of compound A.
While, to the guinea pigs in the control group, neither the 0.5% tragacanth aqueous solution nor the compound A suspension were administered.
Before exposure and during the period of 4 weeks of exposure to the smoke of cigarette, the respiratory functions (specific airway resistance and peak expiration flow) of the guinea pigs were non-invasively assessed once a week under conscious condition, using Double-chamber Plethymograph method with a respiratory function measuring equipment (Pulmos-I, manufactured by M.I.P.S. Co.).
The respiratory functions (i.e., values of specific airway resistance and peak expiration flow) were obtained as an average of 100 times measured values of the functions, and were shown as the changes of percentage to the respective value of respiratory function measured before exposure to cigarette smoke.

CCOc1ccc(-c2nc(-c3cccc(C(=O)O)n3)cs2)cc1OCC [Compound A, 6-[2-(3,4-diethoxyphenyl)thiazol-4-yl]pyridine-2-carboxylic acid]
Effect on specific airway resistance and peak expiration flow as compared with vehicle administered group (4 weeks cigarette smoke exposure): excellent improving effects | Changes in Peak expiration flow (1 Week after exposure): 9.67% | Changes in Specific airway resistance value (1 Week after exposure): 12.75% | Changes in Peak expiration flow (2 Week after exposure): 15.67% | Changes in Specific airway resistance value (2 Week after exposure): 41.82% | Changes in Peak expiration flow (3 Week after exposure): 14.08% | Changes in Specific airway resistance value (3 Week after exposure): 61.08% | Changes in Peak expiration flow (4 Week after exposure): 37.06% | Changes in Specific airway resistance value (4 Week after exposure): 51.26%

— patent publication US7932276B2, “Agent for curing chronic obstructive pulmonary disease” (Otsuka Pharmaceutical Co., Ltd., priority 2001, dated 2011)
